Data published in ChEMBL document CHEMBL1123646, “2-Phenylpyrroles as conformationally restricted benzamide analogues. A new class of potential antipsychotics. 1” (J Med Chem, 1987).

Tests used:
Mus musculus [1] = experiment: Antagonism of apomorphine-induced climbing in mice when administered perorally 60 min prior to apomorphine (1 mg/kg); assay type: functional; settings: po
D(2) dopamine receptor = D(2) dopamine receptor (Rattus norvegicus, UniProt P61169); experiment: Ability to inhibit the [3H]spiperone binding to striatum Dopamine receptor D2 was determined in rat; assay type: tissue-based
Rattus norvegicus [2] = experiment: Suppression of conditioned avoidance behavior in rats when administered perorally 60 min before measurement; assay type: functional; settings: po
Rattus norvegicus [3] = experiment: Suppression of conditioned avoidance behavior in rats when administered intraperitoneally 30 min before measurement; settings: ip
Mus musculus [4] = experiment: Antagonism of apomorphine-induced climbing in mice when administered intraperitoneally 30 min prior to apomorphine (1 mg/kg); settings: ip
Rattus norvegicus [5] = experiment: Induction of catalepsy in rats when administered intraperitoneally 4 hr prior to measurement to groups of 9 animals. value is based on at least three dose levels(40% of animals showed catalepsy); assay type: functional; settings: ip
[6] = target: Serotonin 2 (5-HT2) receptor (Rattus norvegicus, UniProt P30994+P08909+P14842); experiment: Ability to inhibit [3H]spiperone binding to 5-hydroxytryptamine 2 receptor determined in rat
[7] = target: T1, Adrenergic receptor alpha-1 (Rattus norvegicus, UniProt P15823+P23944+P43140); experiment: Ability to inhibit [3H]WB-4101 binding to alpha-1 adrenergic receptor was determined in rat
T1 sequence (P15823 whole entry): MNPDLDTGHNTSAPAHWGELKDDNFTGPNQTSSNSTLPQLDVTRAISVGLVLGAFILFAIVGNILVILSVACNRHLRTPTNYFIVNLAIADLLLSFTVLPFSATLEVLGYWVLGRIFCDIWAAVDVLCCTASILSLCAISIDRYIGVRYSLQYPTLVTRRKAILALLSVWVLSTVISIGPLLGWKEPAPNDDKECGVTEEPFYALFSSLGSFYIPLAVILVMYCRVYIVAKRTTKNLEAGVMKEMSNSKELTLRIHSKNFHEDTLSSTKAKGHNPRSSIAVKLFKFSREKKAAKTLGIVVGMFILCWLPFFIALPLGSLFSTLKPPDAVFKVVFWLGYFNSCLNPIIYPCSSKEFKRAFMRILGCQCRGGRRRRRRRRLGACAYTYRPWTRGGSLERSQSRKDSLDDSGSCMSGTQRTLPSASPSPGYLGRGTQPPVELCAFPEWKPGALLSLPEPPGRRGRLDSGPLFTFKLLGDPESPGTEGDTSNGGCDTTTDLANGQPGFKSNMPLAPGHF
T1 sequence (P23944 whole entry): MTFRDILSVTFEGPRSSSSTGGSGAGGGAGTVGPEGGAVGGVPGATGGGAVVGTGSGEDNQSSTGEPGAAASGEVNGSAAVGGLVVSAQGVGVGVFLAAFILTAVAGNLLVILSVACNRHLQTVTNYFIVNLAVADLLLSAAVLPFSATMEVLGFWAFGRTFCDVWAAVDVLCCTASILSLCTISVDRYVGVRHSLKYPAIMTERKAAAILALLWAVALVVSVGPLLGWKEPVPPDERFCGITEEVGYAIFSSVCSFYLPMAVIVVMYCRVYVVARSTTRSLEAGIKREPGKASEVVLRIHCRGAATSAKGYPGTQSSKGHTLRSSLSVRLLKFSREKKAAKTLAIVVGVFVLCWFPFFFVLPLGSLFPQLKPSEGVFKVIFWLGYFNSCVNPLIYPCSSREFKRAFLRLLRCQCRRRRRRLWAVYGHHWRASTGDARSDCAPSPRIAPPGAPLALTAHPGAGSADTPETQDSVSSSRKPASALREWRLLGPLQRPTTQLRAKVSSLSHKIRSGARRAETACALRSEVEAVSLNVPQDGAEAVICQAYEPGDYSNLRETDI
T1 sequence (P43140 whole entry): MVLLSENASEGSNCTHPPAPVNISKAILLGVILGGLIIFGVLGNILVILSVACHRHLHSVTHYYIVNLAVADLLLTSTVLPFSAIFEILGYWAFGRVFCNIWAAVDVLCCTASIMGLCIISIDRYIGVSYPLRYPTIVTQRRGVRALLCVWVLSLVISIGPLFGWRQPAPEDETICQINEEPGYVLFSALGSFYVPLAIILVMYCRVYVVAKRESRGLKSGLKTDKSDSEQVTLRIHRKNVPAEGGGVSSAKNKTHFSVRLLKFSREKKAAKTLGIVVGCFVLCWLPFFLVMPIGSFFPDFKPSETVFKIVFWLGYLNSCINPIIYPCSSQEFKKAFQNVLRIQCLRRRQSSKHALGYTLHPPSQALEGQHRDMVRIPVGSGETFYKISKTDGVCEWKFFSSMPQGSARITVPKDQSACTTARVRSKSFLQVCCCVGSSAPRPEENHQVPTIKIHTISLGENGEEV

D(2) dopamine receptor, sequence (P61169 whole entry): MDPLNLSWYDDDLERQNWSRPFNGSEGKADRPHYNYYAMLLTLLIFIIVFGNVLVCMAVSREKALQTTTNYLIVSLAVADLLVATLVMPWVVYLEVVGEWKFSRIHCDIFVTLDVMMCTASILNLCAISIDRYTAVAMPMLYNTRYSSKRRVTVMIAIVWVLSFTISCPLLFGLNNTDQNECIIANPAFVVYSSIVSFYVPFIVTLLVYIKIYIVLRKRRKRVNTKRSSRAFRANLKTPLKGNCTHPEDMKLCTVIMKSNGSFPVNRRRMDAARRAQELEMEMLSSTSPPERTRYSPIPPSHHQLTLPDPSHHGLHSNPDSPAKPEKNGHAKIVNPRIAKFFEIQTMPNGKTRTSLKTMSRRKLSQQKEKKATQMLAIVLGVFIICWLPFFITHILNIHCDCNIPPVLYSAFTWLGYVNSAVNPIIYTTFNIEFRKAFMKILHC

Structure (SMILES): CCS(=O)(=O)c1ccc(OC)c(-c2ccc(CN3CCN(c4ccccc4OC)CC3)[nH]2)c1
- ED50 (Mus musculus [1]): 35 mg/kg
- Ki (D(2) dopamine receptor): 7.3 nM
- ED50 (Rattus norvegicus [2]): > 50 mg/kg
- ED50 (Rattus norvegicus [3]): > 20 mg/kg
- ED50 (Mus musculus [4]): > 20 mg/kg

Structure (SMILES): COc1ccccc1N1CCN(CCCC(=O)c2ccc(F)cc2)CC1 [FLUANISONE]
- ED50 (Rattus norvegicus [5]): ≥ 22 mg/kg
- Ki [6]: 52 nM
- ED50 (Mus musculus [1]): 25 mg/kg
- Ki (D(2) dopamine receptor): 2.9 nM
- ED50 (Rattus norvegicus [2]): > 50 mg/kg
- Ki [7]: 0.87 nM
- ED50 (Rattus norvegicus [3]): 2.2 mg/kg
- ED50 (Mus musculus [4]): 0.4 mg/kg

Structure (SMILES): CCS(=O)(=O)c1ccc(OC)c(-c2ccc(CN3CCC(O)(c4ccc(Cl)cc4)CC3)[nH]2)c1
- ED50 (Mus musculus [1]): > 100 mg/kg
- Ki (D(2) dopamine receptor): 150 nM
- ED50 (Mus musculus [4]): > 20 mg/kg

Structure (SMILES): OC1(c2ccc(Cl)cc2)CCN(Cc2ccc(-c3ccc(F)cc3)[nH]2)CC1
- Ki [6]: 9300 nM
- ED50 (Mus musculus [1]): 51 mg/kg
- Ki (D(2) dopamine receptor): 1100 nM
- ED50 (Rattus norvegicus [2]): > 50 mg/kg
- Ki [7]: 1600 nM
- ED50 (Rattus norvegicus [3]): > 20 mg/kg
- ED50 (Mus musculus [4]): 25 mg/kg

Structure (SMILES): COc1ccccc1N1CCN(Cc2ccc(-c3ccc(F)cc3)[nH]2)CC1
- ED50 (Rattus norvegicus [5]): > 24 mg/kg
- Ki [6]: 310 nM
- ED50 (Mus musculus [1]): 0.9 mg/kg
- Ki (D(2) dopamine receptor): 0.91 nM
- ED50 (Rattus norvegicus [2]): 8.5 mg/kg
- Ki [7]: 57 nM
- ED50 (Rattus norvegicus [3]): 2.3 mg/kg
- ED50 (Mus musculus [4]): 0.2 mg/kg

Structure (SMILES): COc1ccccc1N1CCN(CCNC(=O)c2ccc(F)cc2)CC1
- ED50 (Rattus norvegicus [5]): > 7.4 mg/kg
- Ki [6]: 700 nM
- ED50 (Mus musculus [1]): 15 mg/kg
- ED50 (Rattus norvegicus [2]): 30 mg/kg
- Ki [7]: 9 nM
- ED50 (Rattus norvegicus [3]): 0.74 mg/kg
- ED50 (Mus musculus [4]): 0.4 mg/kg

Structure (SMILES): CCN1CCCC1c1ccc(-c2cc(S(=O)(=O)CC)ccc2OC)[nH]1 (configuration not stated)
- ED50 (Mus musculus [1]): 11.4 mg/kg
- Ki (D(2) dopamine receptor): 29 nM
- ED50 (Rattus norvegicus [2]): 35 mg/kg
- ED50 (Mus musculus [4]): 4.7 mg/kg

Structure (SMILES): CCN1CCC[C@H]1CNC(=O)c1cc(S(N)(=O)=O)ccc1OC [LEVOSULPIRIDE]
- ED50 (Mus musculus [1]): 195 mg/kg
- ED50 (Rattus norvegicus [2]): > 220 mg/kg
- Ki [7]: 15000 nM
- ED50 (Rattus norvegicus [3]): > 100 mg/kg
- ED50 (Mus musculus [4]): > 21 mg/kg

Structure (SMILES): O=C(CCCN1CCC(O)(c2ccc(Cl)cc2)CC1)c1ccc(F)cc1 [HALOPERIDOL]
- ED50 (Rattus norvegicus [5]): 2 mg/kg
- ED50 (Rattus norvegicus [2]): 0.8 mg/kg
- ED50 (Rattus norvegicus [3]): 0.45 mg/kg
- ED50 (Mus musculus [4]): 0.08 mg/kg

Structure (SMILES): CCN1CCC[C@H]1CNC(=O)c1cc(S(=O)(=O)CC)ccc1OC
- Ki [6]: 54000 nM
- ED50 (Mus musculus [1]): 36 mg/kg
- Ki (D(2) dopamine receptor): 9.3 nM
- ED50 (Rattus norvegicus [2]): 70 mg/kg
- Ki [7]: 1100 nM
- ED50 (Mus musculus [4]): > 10 mg/kg

Structure (SMILES): O=C(NCCN1CCC(O)(c2ccc(Cl)cc2)CC1)c1ccc(F)cc1
- ED50 (Mus musculus [1]): 20 mg/kg
- Ki (D(2) dopamine receptor): 480 nM
- ED50 (Rattus norvegicus [2]): > 50 mg/kg
- Ki [7]: 250 nM
- ED50 (Mus musculus [4]): 9 mg/kg
